Data as given in patent publication US11925672B2, “Peptide having antioxidant activity and composition containing same” (SEMPIO FOODS COMPANY, priority 2018, dated 2024).
Entries after “also recorded” stand apart in the source; their conditions may differ. Numbered stars: 1 amine (or outer) side, 2 acyl side, 3 side chain; on linkers, the order of the positions; unused ones are H or OH. Square brackets hold non-standard residues; d marks the D form. Ends that are not written are not given here. γGlu = O=C(O)[C@H](CCC(=O)[*:2])N[*:1]

Experiments:
[1] = DPPH-scavenging ability assay; format: biochemical; conditions: peptides; vs GSH
Experimental: 2. DPPH (2,2-Diphenyl-1-Picryl-Hydrazyl-Hydrate) Assay Method
The antioxidant activity due to the DPPH-scavenging ability of yeast hydrolyzates was measured using the methods of Choi Chang-seop et al. (2003) and Shekhar et al. (2014). 20 μl of a sample (1 to 5000 μg/ml) dissolved in distilled water was added to 180 μl of an ethanol solution containing DPPH (0.111 mM). The resulting mixture was allowed to react at 25° C. for 30 minutes, and absorbance was measured at 517 nm. Ascorbic acid was used to create the standard curve, and DPPH-scavenging ability (%) was calculated and expressed by the equation of [(absorbance upon no addition of sample−absorbance of sample)/absorbance upon no addition of sample]×100.
(§1) The DPPH-scavenging ability and reducing power of the fractions of respective yeast hydrolyzates (Preparation Examples 1 to 4) were measured using the same method of measuring DPPH-scavenging ability and reducing power as in Experimental Example 1.

[2] = Reducing power assay (method of Oyaizu); conditions: peptides; vs GSH
Experimental: 3. Reducing Power Assay Method
The reducing power of yeast hydrolysates was measured using the method of Oyaizu (1986). Specifically, a sample (1-5000 μg/ml, 60 μl) dissolved in distilled water was mixed with phosphate buffer (150 μl, 0.2M, pH 6.6) and potassium ferricyanide (K 3 Fe(CN) 6, 150 μl, 1%), followed by reacting at 50° C. for 20 minutes. Further, 150 μl of trichloroacetic acid (10%) was added thereto, followed by centrifugation at 2,000 g for 10 minutes. 150 μl of the supernatant containing the sample was added to 150 μl of DW and FeCl3 (30 μl, 0.1%). The resulting mixture was allowed to react at 25° C. for 10 minutes, and absorbance was measured at 700 nm.
as §1

Nrf2 mRNA = Nrf2 mRNA expression level by real-time PCR in Tert-BHP-treated HEK293 cells; format: cell-based; conditions: Tert-BHP 300 μM, peptide 500 μM, 18 hours; for effect on expression of Nrf2 mRNA: FIGS. 5A to 5C; for Nrf2 mRNA expression compared to positive control GSH: vs GSH
Experimental: In the present invention, the antioxidant activity was compared between the 100 types of peptides, and the change in Nrf2 mRNA expression was measured through PCR in order to select the final peptide.
(§2) An HEK293 cell (kidney cell) line was seeded at a density of 6.6×10^5/well in DMEM (Dulbecco's Modified Eagle's Medium) medium on a 6-well plate and cultured at 37° C. under 5% CO2 for 24 hours. The next day, the medium was exchanged with serum and amino-acid-free media, and then the cells were further cultured for 20 hours or longer. The cells were treated with Tert-BHP (300 μM) and 500 μM 100 types of peptides, and then cultured for 18 hours.
RNA was extracted from the cells treated with 100 types of peptides in (1) using TRIzol (Thermo Fisher Scientific). A GoScript™ Reverse Transcription System (Promega, Wisconsin, USA) was used to synthesize cDNA from the RNA. The cDNA was synthesized by performing annealing using 1 μg of RNA, 0.5 μg of an oligo dt primer, 0.5 μg of a random primer and RT-PCR pre-mixture at 25° C. for 5 minutes, extension at 42° C. for 60 minutes, and inactivation at 70° C. for 15 minutes.
(§3) PCR was performed using Maxime™ PCR PreMix (i-StarTaq) (Intron Biotechnology, Korea). Real-time PCR was performed using SsoAdvanced™ Universal SYBR® Green Supermix (Bio-Rad, USA). 100 ng of cDNA, 2 μM (pmol/μl) primers, 10 μl of 2X SsoAdvanced™ Universal SYBR® Green Supermix and DW were added to the PCR plate well. Then, the temperature was cyclically adjusted to 95° C. for 3 minutes, 95° C. for 10 seconds and 58° C. for 40 seconds for a total of 40 cycles. A PCR reaction was performed using a CFX96 Touch™ Real-Time PCR Detection System (Bio-Rad, California, USA), and fluorescence intensity was measured at the end of each cycle.

SOD2 mRNA = SOD2 mRNA expression level by real-time PCR in Tert-BHP-treated HEK293 cells; format: cell-based; conditions: Tert-BHP 300 μM, peptide 500 μM, 18 hours; for effect on SOD2 mRNA expression: FIG. 6; for SOD2 mRNA expression compared to positive control GSH: vs GSH
Experimental: The expression of SOD2 mRNA as another antioxidant factor was determined. The cell line culture, RNA extraction, cDNA synthesis and PCR experiments were performed in the same manner as in Experimental Example 5 above. A detailed description thereof is given below.
as §2, with “and” for “under”
RNA was extracted from the cells treated with 100 types of peptides in (1) using TRIzol (Thermo Fisher Scientific). A GoScript™ Reverse Transcription System (Promega, Wisconsin, USA) was used to synthesize cDNA from the RNA. The cDNA was synthesized by performing annealing with 1 μg RNA, 0.5 μg of an oligo dt primer, 0.5 μg of a random primer, and RT-PCR pre-mixture at 25° C. for 5 minutes, extension at 42° C. for 60 minutes, and inactivation at 70° C. for 15 minutes.
as §3, with “using the” for “using a”

| Substance | DPPH-scavenging ability of peptide compared to GSH [1] | reducing power of peptide compared to GSH [2] | effect on expression of Nrf2 mRNA (Nrf2 mRNA) | Nrf2 mRNA expression compared to positive control GSH (Nrf2 mRNA) | effect on SOD2 mRNA expression (SOD2 mRNA) | SOD2 mRNA expression compared to positive control GSH (SOD2 mRNA) |
| --- | --- | --- | --- | --- | --- | --- |
| γ-GLU-GLN-GLU ([γGlu]-Gln-Glu) | comparable or superior to GSH | comparable or superior to GSH | improve the expression of Nrf2 mRNA | remarkably excellent effect; also recorded: statistically significant activity; also recorded: comparable or superior to GSH | increased SOD2 mRNA expression | remarkably excellent; also recorded: statistically significant activity |
| γ-GLU-VAL-CYS ([γGlu]-Val-Cys; also: gamma-glutamyl isopeptide bond (Glu side chain to Val)) | comparable or superior to GSH | comparable or superior to GSH | improve the expression of Nrf2 mRNA | remarkably excellent effect; also recorded: statistically significant activity; also recorded: comparable or superior to GSH | increased SOD2 mRNA expression | remarkably excellent; also recorded: statistically significant activity |
| γ-GLU-THR-GLY ([γGlu]-Thr-Gly; also: gamma-glutamyl isopeptide bond (Glu side chain to Thr)) | comparable or superior to GSH | comparable or superior to GSH | improve the expression of Nrf2 mRNA | remarkably excellent effect; also recorded: statistically significant activity; also recorded: comparable or superior to GSH | increased SOD2 mRNA expression | remarkably excellent; also recorded: statistically significant activity |
